Assay results as given in ChEMBL document CHEMBL1201862, “PubChem BioAssay data set” (2004).
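Five concentrations, 48 hours, 96-well plates. GI50: concentration for 50% inhibition of growth.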 The source made the active and inactive calls. Rule as the data show it: active = GI50 up to about 1.1 µM and inactive = higher.

How the values were obtained:
Test in all cases: NCI tumour cell line growth inhibition, 48 h
OVCAR-4 = tested on: OVCAR-4
HOP-92 = tested on: HOP-92
HCT-116 = tested on: HCT-116
A498 = tested on: A498
Malme-3M = tested on: Malme-3M
CAKI-1 = tested on: CAKI-1
RPMI-8226 = tested on: RPMI-8226
HCC 2998 = tested on: HCC 2998
SF-268 = tested on: SF-268
M14 = tested on: M14
IGROV-1 = tested on: IGROV-1
NCI-H460 = tested on: NCI-H460
DU-145 = tested on: DU-145
SF-539 = tested on: SF-539
BT-549 = tested on: BT-549
HCT-15 = tested on: HCT-15
SNB-19 = tested on: SNB-19
NCI-H23 = tested on: NCI-H23
NCI-H226 = tested on: NCI-H226
ACHN = tested on: ACHN

SMILES: C=C1CN(C(=O)c2cc3cc(OC)c(OC)c(OC)c3[nH]2)c2cc([N+](=O)[O-])ccc21
- GI50 (OVCAR-4): > 100 µM (inactive)
- GI50 (HOP-92): 33.8 µM (inactive)
- GI50 (HCT-116): > 100 µM (inactive)
- GI50 (A498): 64.4 µM (inactive)
- GI50 (Malme-3M): > 100 µM (inactive)
- GI50 (CAKI-1): > 100 µM (inactive)
- GI50 (RPMI-8226): > 100 µM (inactive)
- GI50 (HCC 2998): > 100 µM (inactive)
- GI50 (SF-268): 15.5 µM (inactive)
- GI50 (M14): > 100 µM (inactive)
- GI50 (IGROV-1): > 100 µM (inactive)
- GI50 (NCI-H460): > 100 µM (inactive)
- GI50 (DU-145): > 100 µM (inactive)
- GI50 (SF-539): > 100 µM (inactive)
- GI50 (BT-549): 61.2 µM (inactive)
- GI50 (HCT-15): > 100 µM
- GI50 (SNB-19): 45.8 µM (inactive)
- GI50 (NCI-H23): 65 µM (inactive)
- GI50 (NCI-H226): > 100 µM (inactive)

SMILES: Oc1ncc(N(CCCl)CCCl)c(O)n1 [URACIL MUSTARD]
- GI50 (OVCAR-4): 83 µM (inactive)
- GI50 (HOP-92): 23.8 µM (inactive)
- GI50 (HCT-116): 49 µM (inactive)
- GI50 (A498): 69.5 µM (inactive)
- GI50 (Malme-3M): 32.8 µM (inactive)
- GI50 (CAKI-1): 4.33 µM (inactive)
- GI50 (RPMI-8226): 41.6 µM (inactive)
- GI50 (HCC 2998): 62.7 µM (inactive)
- GI50 (SF-268): 12.7 µM (inactive)
- GI50 (M14): 20.7 µM (inactive)
- GI50 (IGROV-1): 81.3 µM (inactive)
- GI50 (NCI-H460): 3.48 µM (inactive)
- GI50 (DU-145): 22.3 µM (inactive)
- GI50 (SF-539): 11.7 µM (inactive)
- GI50 (BT-549): 38.5 µM (inactive)
- GI50 (HCT-15): 50.2 µM
- GI50 (ACHN): 2.67 µM (inactive)
- GI50 (SNB-19): 42.1 µM (inactive)
- GI50 (NCI-H23): 15 µM (inactive)
- GI50 (NCI-H226): 48.2 µM (inactive)

SMILES: CC1(C)C(=O)/C=C\C(=O)C(C)(C)C2=CC=C(O2)C(C)(C)C(=O)C(Br)C(Br)C(=O)C(C)(C)C2=CC=C1O2 (configuration not stated)
- GI50 (OVCAR-4): > 74.5 µM (inactive)
- GI50 (HOP-92): > 21.5 µM (inactive)
- GI50 (HCT-116): 17.9 µM (inactive)
- GI50 (A498): > 100 µM (inactive)
- GI50 (Malme-3M): 49.9 µM (inactive)
- GI50 (CAKI-1): 58.6 µM (inactive)
- GI50 (RPMI-8226): 2.58 µM (inactive)
- GI50 (HCC 2998): > 100 µM (inactive)
- GI50 (SF-268): > 66.5 µM (inactive)
- GI50 (M14): 58.7 µM (inactive)
- GI50 (IGROV-1): > 52.6 µM (inactive)
- GI50 (NCI-H460): > 100 µM (inactive)
- GI50 (DU-145): > 100 µM (inactive)
- GI50 (SF-539): > 68.9 µM (inactive)
- GI50 (BT-549): 21.7 µM (inactive)
- GI50 (HCT-15): 53.1 µM
- GI50 (ACHN): > 46.5 µM (inactive)
- GI50 (SNB-19): > 100 µM (inactive)
- GI50 (NCI-H23): 48.5 µM (inactive)
- GI50 (NCI-H226): > 100 µM (inactive)

SMILES: CCOC(=O)C(Cc1ccc(N(CCCl)CCCl)cc1)NC(=O)C(Cc1ccccc1)NC(C)=O (configuration not stated)
- GI50 (OVCAR-4): 0.0159 µM (active)
- GI50 (HOP-92): 0.621 µM (active)
- GI50 (HCT-116): > 0.265 µM (active)
- GI50 (A498): > 0.288 µM (active)
- GI50 (Malme-3M): 0.0887 µM (active)
- GI50 (CAKI-1): 0.111 µM (active)
- GI50 (RPMI-8226): 0.0655 µM (active)
- GI50 (HCC 2998): > 1 µM (active)
- GI50 (SF-268): 0.126 µM (active)
- GI50 (M14): 0.141 µM (active)
- GI50 (IGROV-1): 0.0414 µM (active)
- GI50 (NCI-H460): 0.222 µM (active)
- GI50 (DU-145): > 0.582 µM (active)
- GI50 (SF-539): 0.175 µM (active)
- GI50 (BT-549): > 0.583 µM (active)
- GI50 (HCT-15): > 0.378 µM
- GI50 (ACHN): 0.0255 µM (active)
- GI50 (SNB-19): > 0.38 µM (active)
- GI50 (NCI-H23): 0.162 µM (active)
- GI50 (NCI-H226): > 1 µM (active)

SMILES: CC1(C)N/C(=C\[N+](=O)[O-])C(C)(C)N1O
- GI50 (OVCAR-4): > 10 µM (inactive)
- GI50 (HOP-92): > 10 µM (inactive)
- GI50 (HCT-116): > 10 µM (inactive)
- GI50 (A498): > 10 µM (inactive)
- GI50 (Malme-3M): > 10 µM (inactive)
- GI50 (CAKI-1): > 10 µM (inactive)
- GI50 (RPMI-8226): > 10 µM (inactive)
- GI50 (HCC 2998): > 10 µM (inactive)
- GI50 (SF-268): > 10 µM (inactive)
- GI50 (M14): > 10 µM (inactive)
- GI50 (IGROV-1): > 10 µM (inactive)
- GI50 (NCI-H460): > 10 µM (inactive)
- GI50 (DU-145): > 10 µM (inactive)
- GI50 (SF-539): > 10 µM (inactive)
- GI50 (BT-549): > 10 µM (inactive)
- GI50 (HCT-15): > 10 µM
- GI50 (ACHN): > 10 µM (inactive)
- GI50 (SNB-19): > 10 µM (inactive)
- GI50 (NCI-H23): > 10 µM (inactive)
- GI50 (NCI-H226): > 10 µM (inactive)

SMILES: Nc1nc(Cl)cc(NCC2(O)CCCC2)n1
- GI50 (OVCAR-4): > 100 µM (inactive)
- GI50 (HOP-92): > 100 µM (inactive)
- GI50 (HCT-116): > 100 µM (inactive)
- GI50 (A498): > 100 µM (inactive)
- GI50 (Malme-3M): > 100 µM (inactive)
- GI50 (CAKI-1): > 100 µM (inactive)
- GI50 (RPMI-8226): > 100 µM (inactive)
- GI50 (HCC 2998): > 100 µM (inactive)
- GI50 (SF-268): > 100 µM (inactive)
- GI50 (IGROV-1): > 100 µM (inactive)
- GI50 (NCI-H460): > 100 µM (inactive)
- GI50 (DU-145): > 100 µM (inactive)
- GI50 (SF-539): > 100 µM (inactive)
- GI50 (BT-549): > 100 µM (inactive)
- GI50 (HCT-15): > 100 µM
- GI50 (ACHN): > 100 µM (inactive)
- GI50 (NCI-H23): > 100 µM (inactive)
- GI50 (NCI-H226): > 100 µM (inactive)

SMILES: Cc1cc(S(=O)(=O)Nc2nc(N)nc(N(C)C)n2)c(S)cc1Cl
- GI50 (OVCAR-4): > 10 µM (inactive)
- GI50 (HOP-92): > 10 µM (inactive)
- GI50 (HCT-116): > 10 µM (inactive)
- GI50 (A498): > 10 µM (inactive)
- GI50 (Malme-3M): > 10 µM (inactive)
- GI50 (CAKI-1): > 10 µM (inactive)
- GI50 (RPMI-8226): > 10 µM (inactive)
- GI50 (HCC 2998): > 10 µM (inactive)
- GI50 (SF-268): > 10 µM (inactive)
- GI50 (M14): > 10 µM (inactive)
- GI50 (IGROV-1): > 10 µM (inactive)
- GI50 (NCI-H460): > 10 µM (inactive)
- GI50 (DU-145): > 10 µM (inactive)
- GI50 (SF-539): > 10 µM (inactive)
- GI50 (BT-549): > 10 µM (inactive)
- GI50 (HCT-15): > 10 µM
- GI50 (ACHN): > 10 µM (inactive)
- GI50 (SNB-19): > 10 µM (inactive)
- GI50 (NCI-H23): > 10 µM (inactive)
- GI50 (NCI-H226): > 10 µM (inactive)
